Laboratory results reported in ChEMBL document CHEMBL4602701 (J Med Chem, 2020).

Assays:
[1] = biological target: T1, Steroid 17-alpha-hydroxylase/17,20 lyase (Homo sapiens, UniProt P05093); test: Binding affinity to C-terminal 6-His-tagged human CYP17A1 expressed in Escherichia coli assessed as induction of type II binding spectral changes at 50 uM using 1 uM CYP17A1 by spectroscopy
T1 sequence (P05093 whole entry): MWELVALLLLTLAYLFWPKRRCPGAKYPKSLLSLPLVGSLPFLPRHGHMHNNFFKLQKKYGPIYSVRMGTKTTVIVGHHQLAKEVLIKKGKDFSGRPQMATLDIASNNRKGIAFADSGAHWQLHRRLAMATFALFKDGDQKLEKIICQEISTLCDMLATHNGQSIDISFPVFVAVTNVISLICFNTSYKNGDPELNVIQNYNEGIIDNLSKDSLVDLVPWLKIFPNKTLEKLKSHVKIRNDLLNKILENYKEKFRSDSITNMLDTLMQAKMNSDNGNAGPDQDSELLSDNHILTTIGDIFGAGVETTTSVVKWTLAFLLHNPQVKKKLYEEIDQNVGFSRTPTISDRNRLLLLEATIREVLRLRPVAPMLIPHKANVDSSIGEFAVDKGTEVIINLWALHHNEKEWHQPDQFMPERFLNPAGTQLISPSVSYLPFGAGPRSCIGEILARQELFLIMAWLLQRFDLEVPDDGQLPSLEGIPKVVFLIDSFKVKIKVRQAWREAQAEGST

[2] = biological target: T1, Steroid 17-alpha-hydroxylase/17,20 lyase; test: Binding affinity to C-terminal 6-His-tagged human CYP17A1 expressed in Escherichia coli assessed as induction of spectral changes by measuring rate constant of first reaction at 20 uM using 2 uM CYP17A1 by spectroscopy
[3] = biological target: T1, Steroid 17-alpha-hydroxylase/17,20 lyase; test: Binding affinity to C-terminal 6-His-tagged human CYP17A1 expressed in Escherichia coli assessed as induction of spectral changes by measuring rate constant of second reaction at 20 uM using 2 uM CYP17A1 by spectroscopy

Activity [1]: Active | K [2]: 44 to 45 s⁻¹ | K [3]: 1.9 s⁻¹
SMILES: CC(C)[C@](O)(c1ccc2cc(OC(F)F)c(OC(F)F)cc2c1)c1c[nH]nn1 [SEVITERONEL]
